Earlier results as cited in the CATMoS acute toxicity set (Mansouri et al. 2021).
Several values for one entry are separate records, joined by “and”; a condition that tells them apart may be missing. Equal entries are not always repeated.

assay: rat acute oral toxicity; settings: in vivo

Row | SMILES | LD50
1 | CN(N=O)c1ccccc1 | 225 mg/kg
2 | NC(N)=[Se] | 50 mg/kg
3 | CCOC(=O)C1OC1(C)c1ccccc1 (stereo not drawn) | 5470 mg/kg
4 | Cc1c(Cl)ccc(C(C)c2ccccc2)c1C (stereo not drawn) | 2130 mg/kg
5 | CCC(C)=CCCC(C)=O | 3570 mg/kg
6 | COP(=O)(OC)SC | 15 mg/kg
7 | CC(=O)Nc1ccc(OCC(O)CNC(C)C)cc1 (stereo not drawn) | 3460 mg/kg
8 | Cc1ccc(C)c(O)c1 | 444 mg/kg
9 | CC(C)COP(=S)(S)OCC(C)C | 3000 mg/kg
10 | CCC(C)OC(C[n+]1ccccc1)c1ccc(Cl)cc1 (stereo not drawn) | 250 mg/kg
11 | c1ccc(C(N2CCOCC2)N2CCOCC2)cc1 | 5060 mg/kg
12 | OCCOCCOCCN1CCN(C(c2ccccc2)c2ccc(Cl)cc2)CC1 (stereo not drawn) | 920 mg/kg
13 | CC(C#N)N1CCOCC1 (stereo not drawn) | 87 mg/kg
14 | C=COC=O | 2820 mg/kg
15 | CCCCCCCc1cc(C)c(O)c(C)c1 | 1600 mg/kg
16 | CNC1=Nc2ccc(Cl)cc2C(c2ccccc2)=[N+]([O-])C1 | 537 mg/kg
17 | FC(F)(F)c1nc2c(Br)c(Br)c(Cl)c(Br)c2[nH]1 | 8.32 mg/kg
18 | C=C(C)C(=O)OCC(C)O (stereo not drawn) | 11200 mg/kg
19 | COP1(=S)OCc2ccccc2O1 (stereo not drawn) | 102 mg/kg
20 | O=[N+]([O-])c1ccc(Cl)cc1C(F)(F)F | 554 mg/kg
21 | COCCOC(=O)C1=C(C)NC(C)=C(C(=O)OC(C)C)C1c1cccc([N+](=O)[O-])c1 (stereo not drawn) | 2740 mg/kg
22 | CCC(=C(c1ccc(OCCN(C)C)cc1)c1ccc(OP(=O)(O)O)cc1)c1ccc(C(C)C)cc1 | 785 mg/kg
23 | CS(=O)(=O)O | 6170 mg/kg
24 | CCCCCCCCCCCCCCCC(=O)OCC(=O)[C@@]1(O)[C@H](C)C[C@H]2[C@@H]3CCC4=CC(=O)C=C[C@]4(C)[C@@]3(F)[C@@H](O)C[C@@]21C | 315 mg/kg

Row | SMILES | LD50
25 | CCCCCCCCOC(=O)C1=C(C)NC(C)=C(C(=O)NC2CC2)C1c1ccccc1[N+](=O)[O-] (stereo not drawn) | 50 mg/kg
26 | O=C(O)C(O)(c1ccccc1)C1CCCCC1 (stereo not drawn) | 2670 mg/kg
27 | CCSP(=O)(CCl)SCC | 35 mg/kg
28 | CN(N=O)c1ccccn1 | 60 mg/kg
29 | CCCC(C)(Oc1ccc(Cc2ccc(Cl)cc2)cc1)C(=O)OCc1cccnc1 (stereo not drawn) | 10000 mg/kg
30 | CC(Cl)(Cl)CCl | 1140 mg/kg
31 | CCOC(=O)C(C)(C)Oc1ccc(Cl)cc1 | 940 mg/kg
32 | O=C(CCl)CC(=O)Nc1ccccc1 | 1820 mg/kg
33 | CCN(CC)c1ccc(C=O)c(O)c1 | 2260 mg/kg
34 | CNC(=O)c1cc(Oc2ccc(N)c(F)c2)ccn1 | 500 mg/kg
35 | CC1=CC(=O)NS(=O)(=O)O1 | 7430 mg/kg
36 | COCCOc1c(OC)cc(Cc2cnc(N)nc2N)cc1OC | 1170 mg/kg
37 | CCCCCCCCOP(OCC(CC)CCCC)Oc1ccccc1 (stereo not drawn) | 7000 mg/kg
38 | CC(C)n1nc(-c2cccc(Cl)c2Cl)c(N)nc1=N | 229 mg/kg
39 | CNC(=O)Oc1cccc(C(C)C)c1Cl | 35 mg/kg
40 | CN1CCCCC1C(CO)(c1ccccc1)c1ccccc1 (stereo not drawn) | 410 mg/kg
41 | COc1ccc2c(c1)CCCC2=O | 300 mg/kg
42 | C[C@H](NC(=O)[C@H](C)NC(=O)[C@@H](N)CCP(C)(=O)O)C(=O)O | 268 mg/kg
43 | CCCCC(CC)COC(C[n+]1ccccc1)c1cccc(Cl)c1 (stereo not drawn) | 250 mg/kg
44 | c1ccc([C@H]2CN3CCSC3=N2)cc1 | 480 mg/kg
45 | CCCCC(CC)COCCC(=O)O (stereo not drawn) | 3730 mg/kg
46 | COc1cc(C(O)C(C)NC(C)COc2ccccc2)ccc1O (stereo not drawn) | 1280 mg/kg
47 | CCN1C[C@]2(COC)[C@H](O)C[C@H](OC)[C@]34C1[C@H]([C@H](OC)[C@H]23)[C@]1(OC(C)=O)[C@H]2[C@@H](OC(=O)c3ccccc3)[C@](O)(C[C@H]24)[C@@H](OC)[C@@H]1O | 5.97 mg/kg
48 | CC(=O)OCCOCCOCCOC(C)=O | 15600 mg/kg

Row | SMILES | LD50
49 | CC(C)C12C=CC(C)(CC1)OO2 (stereo not drawn) | 200 mg/kg
50 | COP(=S)(OC)Oc1ccc(S(C)=O)c(C)c1 (stereo not drawn) | 125 mg/kg
51 | CCN(CC)NNCCCO | 3730 mg/kg
52 | CSC(C)(C)C=NO | 742 mg/kg
53 | COCCc1ccc(OCC(O)CNC(C)C)cc1 (stereo not drawn) | 3470 mg/kg
54 | O=[N+]([O-])c1cccc(S(=O)(=O)O)c1 | 11000 mg/kg
55 | O=C(C(F)(F)F)C(F)(F)Cl | 85 mg/kg
56 | CCCCC1OC(=O)c2ccccc21 (stereo not drawn) | 2450 mg/kg
57 | CNC(=O)Oc1cc(C)c(C)cc1Cl | 30 mg/kg
58 | CCOC(=O)Nc1ccc2c(c1)N(C(=O)CCN1CCN(CCO)CC1)c1ccccc1CC2 | 147 mg/kg
59 | CCSc1nc(NC(C)C)nc(NC(C)C)n1 | 3900 mg/kg
60 | CCCCC(C)(C)CO | 2200 mg/kg
61 | CCOCCOCCCO | 7060 mg/kg
62 | O=C(O)Cc1csc(-c2ccc(Cl)cc2)n1 | 850 mg/kg
63 | CCOC(C1=NCC(C)(CC)CN1)c1ccccc1 (stereo not drawn) | 220 mg/kg
64 | CCCCC(CC)COC(CBr)c1ccccc1 (stereo not drawn) | 250 mg/kg
65 | CCCOC(=O)CCC(=O)OCCC | 6490 mg/kg
66 | CC(=O)OCC(COc1ccccc1)OC(C)=O (stereo not drawn) | 5250 mg/kg
67 | CC(C)=CCC(CCN1CCCCC1)(C(N)=O)c1cccc2ccccc12 (stereo not drawn) | 57 mg/kg
68 | Cc1ccc(S(=O)(=O)Oc2cc(S(=O)(=O)O)cc3cc(S(=O)(=O)O)cc(N)c23)cc1 | 11500 mg/kg
69 | CC(=O)OCCO | 8250 mg/kg
70 | Cc1c[nH]c2ccccc12 | 3450 mg/kg
71 | CC(C)c1cc([N+](=O)[O-])cc([N+](=O)[O-])c1O | 63 mg/kg
72 | CCC(Br)(CC)C(=O)OCC(Br)(Br)Br | 2500 mg/kg

Row | SMILES | LD50
73 | O=C1CCc2cc(C(O)CCCN3CCN(c4cccc(Cl)c4)CC3)ccc2N1 (stereo not drawn) | 500 mg/kg
74 | O=C(O)c1cc([N+](=O)[O-])cc([N+](=O)[O-])c1O | 860 mg/kg
75 | CCCSP(=O)(OCC)Oc1ccc(Sc2ccc(Cl)cc2)cc1 (stereo not drawn) | 690 mg/kg
76 | CCCCC(CC)COP(=O)(O)O (stereo not drawn) | 3450 mg/kg
77 | CCc1ccc2nc(C(F)(F)F)[nH]c2c1 | 28 mg/kg
78 | Nc1c(Br)cc([N+](=O)[O-])cc1[N+](=O)[O-] | 4100 mg/kg
79 | O=C(O)C(Cl)CCl (stereo not drawn) | 289 mg/kg
80 | CC(=O)OCN(C)N=O | 130 mg/kg
81 | CCN[C@H]1C[C@H](C)S(=O)(=O)c2sc(S(N)(=O)=O)cc21 | 1930 mg/kg
82 | Cc1ccc2c(Cl)cc(Cl)c(O)c2n1 | 660 mg/kg
83 | C=CC(O)CC#N (stereo not drawn) | 200 mg/kg
84 | O=C(O)Cn1c(=O)sc2cccc(Cl)c21 | 3000 mg/kg
85 | CCCCCC[C@H]1C(=O)O[C@H](C)[C@H](NC(=O)c2cccc(NC=O)c2O)C(=O)O[C@@H](C)[C@@H]1OC(=O)CC(C)C | 1470 mg/kg
86 | c1nc(NC2CC2)c2ncn(C3CC3)c2n1 | 130 mg/kg
87 | OCC(Br)CBr (stereo not drawn) | 681 mg/kg
88 | CN(C)c1ccc(N)c2ccccc12 | 400 mg/kg
89 | CCCOc1ccc(C=CC(=O)OCC)cc1OC | 978 mg/kg
90 | ClC1=C(Cl)[C@]2(Cl)[C@H]3[C@H]([C@H]4C=C[C@H]3C4)[C@@]1(Cl)C2(Cl)Cl | 7 mg/kg
91 | CS(=O)(=O)N(Cc1cccnc1)c1ccc(F)cc1F | 1060 mg/kg
92 | Cc1nc2n(c(=O)c1CCN1CCC(c3noc4cc(F)ccc34)CC1)CCC[C@H]2O | 65 mg/kg
93 | CCOC(=O)C(CCc1ccccc1)NC(C)C(=O)N1C(C(=O)O)CC2CCCCC21 (stereo not drawn) | 2500 mg/kg
94 | CC(=O)CCC(=O)O | 1850 mg/kg
95 | CC(C)c1ccccc1N | 1180 mg/kg
96 | COC(F)(F)C(Cl)Cl | 3600 mg/kg

Row | SMILES | LD50
97 | CCOC(C1=NCC(C)(C)CN1)c1ccc(C(C)C)cc1 (stereo not drawn) | 220 mg/kg
98 | CC(C)(c1ccccc1)c1cc(CN2CCCCC2)c(O)c(CN2CCCCC2)c1 | 600 mg/kg
99 | Cc1ncc2coc(OCCO)c2c1O | 2200 mg/kg
100 | CN(C)C(=O)c1ccccc1O | 2300 mg/kg
101 | N#CC(C#N)=C(C#N)C#N | 5 mg/kg
102 | CCOP(=O)(OCC)SC(C)(C)C | 127 mg/kg
103 | CCSSCC | 2030 mg/kg
104 | C=CCC(N)Cc1ccccc1 (stereo not drawn) | 680 mg/kg
105 | COc1ccc2c(c1)N(C[C@H](C)CN(C)C)c1ccccc1S2 | 1100 mg/kg
106 | COc1c(OP(=S)(OCC(C)C)OCC(C)C)cnn(C)c1=O | 135 mg/kg
107 | O[C@H](c1cc(-c2ccc(C(F)(F)F)cc2)nc(C(F)(F)F)c1)[C@H]1CCCCN1 | 518 mg/kg
108 | O=C(NC(CCc1ccc2c(c1)OCO2)CCc1ccc2c(c1)OCO2)c1ccc(Cl)cc1 | 1800 mg/kg
109 | CCN(N=O)C(=O)NC(N)=O | 1050 mg/kg
110 | C[N+]1(C)CCN(CC(O)(c2ccccc2)C2CCCCC2)CC1 (stereo not drawn) | 958 mg/kg
111 | CCC(=O)CC(C)CC (stereo not drawn) | 3500 mg/kg
112 | Clc1ccc(SCOC(Cn2ccnc2)c2ccc(Cl)cc2Cl)cc1 (stereo not drawn) | 3850 mg/kg
113 | NS(=O)(=O)C1CCCCC1 | 80 mg/kg
114 | CC[n+]1c(C=C2Sc3ccccc3N2C)ccc2ccccc21 | 2240 mg/kg
115 | CCSC(=O)N(CC)CC | 400 mg/kg
116 | C[n+]1ccccc1 | 285 mg/kg
117 | CC(Cl)C(=O)O (stereo not drawn) | 800 mg/kg
118 | COP(=O)(OC)OC(=CBr)c1ccc(Cl)cc1Cl | 225 mg/kg
119 | CCc1ccc(C)cc1O | 530 mg/kg
120 | Cn1c2c(c3ccccc31)CCN(CCCN1CCN(c3ccccc3)CC1)C2=O | 650 mg/kg

Row | SMILES | LD50
121 | CCCCC(CC)CNC1CCCCC1 (stereo not drawn) | 710 mg/kg
122 | CC(=O)N(/C(=N/c1cccnc1)NC#N)C(C)(C)C | 615 mg/kg
123 | O=C1c2ccccc2C(=O)C1c1ccc(Cl)cc1 | 290 mg/kg
124 | CN1CCN=C(c2ccccc2)c2cc(Cl)ccc21 | 900 mg/kg
125 | CCCCP(CCCC)CCCC | 750 mg/kg
126 | OC1CCN(c2ccc(-c3ccc(Cl)cc3Cl)nn2)CC1 | 300 mg/kg
127 | Nc1cnn(-c2ccccc2)c(=O)c1Br | 8500 mg/kg
128 | O=C(Cl)C(Cl)Cl | 2460 mg/kg
129 | Cc1ccccc1OCC(O)CO (stereo not drawn) | 625 mg/kg
130 | CCCCCC1CNC(C(=O)NC(C(C)Cl)C2OC(SC)C(O)C(O)C2O)C1 (stereo not drawn) | 1100 mg/kg
131 | CCCCOC(=O)n1c(Br)nc(Br)c1Br | 44 mg/kg
132 | C=C1C(=CC=C2CCCC3(C)C2CCC3C(C)CCCC(O)(C(F)(F)F)C(F)(F)F)CC(O)CC1O (stereo not drawn) | 0.0417 mg/kg
133 | CN[C@@H]1[C@H](O[C@H]2[C@H](O[C@H]3[C@H](O)[C@@H](O)[C@H](NC(=N)N)[C@@H](O)[C@@H]3NC(=N)N)O[C@@H](C)[C@]2(O)C=O)O[C@@H](CO)[C@H](O)[C@H]1O | 9000 mg/kg
134 | Clc1ccc(CSC(Cn2cncn2)=Nc2ccc(Cl)cc2Cl)cc1 | 2800 mg/kg
135 | CON=CC1=CCCNC1 | 12 mg/kg
136 | CN(C)CCOc1ccc(/C(=C(/CCCl)c2ccccc2)c2ccccc2)cc1 | 1700 mg/kg and 3000 mg/kg
137 | O=[N+]([O-])c1cc[n+]([O-])cc1 | 107 mg/kg
138 | CCC(O)(CC)c1[nH]ncc1Cl | 236 mg/kg
139 | Cc1cc(-c2ccc(/N=N/c3c(N)c(C)cc(S(=O)(=O)O)c3N)c(C)c2)ccc1/N=N/c1ccc(O)c(C(=O)O)c1 | 6830 mg/kg
140 | CNC(=O)ON=C(SC)c1ccc(Cl)cc1 | 670 mg/kg
141 | CNC(=O)CSP(O)(=S)OC (stereo not drawn) | 1500 mg/kg
142 | CNC(N)=NC(=N)N | 1750 mg/kg
143 | Clc1cccc(C2CCCCC2)c1Cl | 4750 mg/kg
